# Experimental data taken from patent US8071605B2, “Piperidine compounds for use in the treatment of bacterial infections” (AstraZeneca AB, priority 2008, dated 2011).
# Target: S. aureus GyrB ATPase (Staphylococcus aureus, UniProt P0A0K8)
# Test: S. aureus GyrB ATPase inhibition (ammonium molybdate/malachite green phosphate detection)
# Assay type: biochemical
# Details: compound concentration of 1 μM (unless otherwise noted)
# Method in brief: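 S. aureus GyrB (250 pM) with E. coli GyrA (250 pM), 250 μM ATP and sheared DNA in pH 7.5 Hepes; phosphate release by malachite green/molybdate at 650 nm. Values are percent inhibition at 1 μM compound unless noted, against 2% DMSO and EDTA controls.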
# Sequence of S. aureus GyrB ATPase (P0AES4 whole entry): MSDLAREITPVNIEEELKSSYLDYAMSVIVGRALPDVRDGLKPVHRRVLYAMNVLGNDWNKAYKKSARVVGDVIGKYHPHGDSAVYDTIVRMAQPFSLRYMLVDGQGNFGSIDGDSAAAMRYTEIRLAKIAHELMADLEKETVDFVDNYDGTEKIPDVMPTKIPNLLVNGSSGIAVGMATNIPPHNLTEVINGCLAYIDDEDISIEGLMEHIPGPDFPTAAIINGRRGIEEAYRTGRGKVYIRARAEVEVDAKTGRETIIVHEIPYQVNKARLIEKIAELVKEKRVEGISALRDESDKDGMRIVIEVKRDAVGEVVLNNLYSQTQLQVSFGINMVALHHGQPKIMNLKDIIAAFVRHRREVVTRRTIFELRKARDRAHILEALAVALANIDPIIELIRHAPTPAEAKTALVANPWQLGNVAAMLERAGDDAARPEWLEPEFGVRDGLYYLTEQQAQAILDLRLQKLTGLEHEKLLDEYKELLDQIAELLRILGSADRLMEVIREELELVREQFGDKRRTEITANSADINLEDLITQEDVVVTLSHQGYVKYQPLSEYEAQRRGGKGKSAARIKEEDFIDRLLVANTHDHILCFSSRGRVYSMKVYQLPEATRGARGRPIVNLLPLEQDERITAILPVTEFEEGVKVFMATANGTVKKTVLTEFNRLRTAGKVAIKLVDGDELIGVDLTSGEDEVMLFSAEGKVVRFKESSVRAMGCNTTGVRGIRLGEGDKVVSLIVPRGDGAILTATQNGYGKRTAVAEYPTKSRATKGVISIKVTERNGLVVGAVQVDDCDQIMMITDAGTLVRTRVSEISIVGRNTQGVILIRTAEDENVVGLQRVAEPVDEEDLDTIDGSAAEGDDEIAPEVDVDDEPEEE
# Sequence of S. aureus GyrB ATPase (P0A0K8 whole entry): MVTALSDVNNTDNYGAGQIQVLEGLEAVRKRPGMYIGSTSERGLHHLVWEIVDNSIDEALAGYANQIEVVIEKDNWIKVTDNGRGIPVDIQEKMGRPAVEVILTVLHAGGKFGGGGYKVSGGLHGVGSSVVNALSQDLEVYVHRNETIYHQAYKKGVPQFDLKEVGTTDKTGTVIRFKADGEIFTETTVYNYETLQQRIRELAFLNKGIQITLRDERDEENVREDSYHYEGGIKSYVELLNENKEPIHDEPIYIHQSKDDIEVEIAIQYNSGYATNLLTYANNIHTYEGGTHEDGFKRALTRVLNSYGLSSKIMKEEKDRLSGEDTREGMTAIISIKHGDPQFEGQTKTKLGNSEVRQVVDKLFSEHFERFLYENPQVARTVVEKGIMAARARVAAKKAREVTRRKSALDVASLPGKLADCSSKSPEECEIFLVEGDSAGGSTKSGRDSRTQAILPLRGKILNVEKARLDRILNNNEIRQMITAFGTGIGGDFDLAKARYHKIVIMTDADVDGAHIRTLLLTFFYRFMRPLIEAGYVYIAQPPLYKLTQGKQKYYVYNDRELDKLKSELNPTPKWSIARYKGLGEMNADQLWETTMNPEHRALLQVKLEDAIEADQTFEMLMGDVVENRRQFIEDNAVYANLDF
row,SMILES,inhibition at 1 µM [%]
1,"CCCO[C@H]1CN(c2nc(-c3ncnn3C)c(C(=O)O)s2)CC[C@H]1NC(=O)c1cc(Cl)c(C)[nH]1 [Example 200, 2-[(3S,4R)-4-{[(4-chloro-5-methyl-1H-pyrrol-2-yl)carbonyl]amino}-3-propoxypiperidin-1-yl]-4-(1-methyl-1H-1,2,4-triazol-5-yl)-1,3-thiazole-5-carboxylic acid]",106
2,"CO[C@H]1CN(c2nc(-c3nccc(N4CCN(C)CC4)n3)c(C(=O)O)s2)CC[C@H]1NC(=O)c1[nH]c(C)c(Cl)c1Cl [Example 191, 2-[(3S,4R)-4-{[(3,4-dichloro-5-methyl-1H-pyrrol-2-yl)carbonyl]amino}-3-methoxypiperidin-1-yl]-4-[4-(4-methylpiperazin-1-yl)pyrimidin-2-yl]-1,3-thiazole-5-carboxylic acid]",102
3,Cc1[nH]c(C(=O)N[C@@H]2CCN(c3nc(-c4ncccc4F)c(C(=O)O)s3)C[C@@H]2C)cc1Cl [Example 20],118
4,CCO[C@H]1CN(c2nc(-c3cnccn3)c(C(=O)O)s2)CC[C@H]1NC(=O)c1[nH]c(C)c(Cl)c1Cl [Example 11],101
5,"C=CCO[C@H]1CN(c2nc(-c3ncnn3C)c(C(=O)O)s2)CC[C@H]1NC(=O)c1[nH]c(C)c(Cl)c1Cl [Example 1, 2-[(3S,4R)-4-{[(3,4-dichloro-5-methyl-1H-pyrrol-2-yl)carbonyl]amino}-3-(prop-2-en-1-yloxy)piperidin-1-yl]-4-(1-methyl-1H-1,2,4-triazol-5-yl)-1,3-thiazole-5-carboxylic acid]",99
6,"CCCO[C@H]1CN(c2nc(-c3ncccc3F)c(C(=O)O)s2)CC[C@H]1NC(=O)c1cc(Cl)c(C)[nH]1 [Example 202, 2-[(3S,4R)-4-{[(4-chloro-5-methyl-1H-pyrrol-2-yl)carbonyl]amino}-3-propoxypiperidin-1-yl]-4-(3-fluoropyridin-2-yl)-1,3-thiazole-5-carboxylic acid]",103
7,COCC(COC)Nc1cnc(-c2nc(N3CC[C@@H](NC(=O)c4[nH]c(C)c(Cl)c4Cl)[C@@H](OC)C3)sc2C(=O)O)cn1 [Example 129],103
8,CCO[C@H]1CN(c2nc(-c3cnc(N4CCN[C@H](C)C4)cn3)c(C(=O)O)s2)CC[C@H]1NC(=O)c1[nH]c(C)c(Cl)c1Cl [Example 102],112
9,Cc1[nH]c(C(=O)N[C@@H]2CCN(c3nc(-c4cnccn4)c(C(=O)O)s3)C[C@@H]2C)c(Cl)c1Cl [Example 25],119
10,"CO[C@@H]1CN(c2nc(-c3cnc(N4CCN(C)CC4)cn3)c(C(=O)O)s2)CC[C@@H]1NC(=O)c1[nH]c(C)c(Cl)c1Cl [Example 61, 2-[(3R,4S)-4-{[(3,4-dichloro-5-methyl-1H-pyrrol-2-yl)carbonyl]amino}-3-methoxypiperidin-1-yl]-4-[5-(4-methylpiperazin-1-yl)pyrazin-2-yl]-1,3-thiazole-5-carboxylic acid]",105
11,CCO[C@H]1CN(c2nc(-c3cnc(N4CCN(C(CC)CC)CC4)cn3)c(C(=O)O)s2)CC[C@H]1NC(=O)c1[nH]c(C)c(Cl)c1Cl [Example 99],106
12,"Cc1[nH]c(C(=O)N[C@@H]2CCN(c3nc(-c4cnc(NCCN5CCN(C)CC5)cn4)c(C(=O)O)s3)C[C@@H]2C)c(Cl)c1Cl [Example 175, 2-[(3S,4R)-4-{[(3,4-dichloro-5-methyl-1H-pyrrol-2-yl)carbonyl]amino}-3-methylpiperidin-1-yl]-4-(5-{[2-(4-methylpiperazin-1-yl)ethyl]amino}pyrazin-2-yl)-1,3-thiazole-5-carboxylic acid]",106
13,CCO[C@H]1CN(c2nc(-c3ncnn3CCOC)c(C(=O)O)s2)CC[C@H]1NC(=O)c1[nH]c(C)c(Cl)c1C#N [Example 13],99
14,"CCCO[C@H]1CN(c2nc(-c3ncccc3F)c(C(=O)O)s2)CC[C@H]1NC(=O)c1[nH]c(C)c(Cl)c1C#N [Example 210, 2-[(3S,4R)-4-{[(4-chloro-3-cyano-5-methyl-1H-pyrrol-2-yl)carbonyl]amino}-3-propoxypiperidin-1-yl]-4-(3-fluoropyridin-2-yl)-1,3-thiazole-5-carboxylic acid]",109
